Test results as given in patent publication US20260209260A1, “VECTORIZED NHC IRIDIUM(III) COMPLEXES AND USE THEREOF IN PHOTODYNAMIC THERAPY AND/OR DIAGNOSTIC” (CENTRE NATIONAL DE LA RECHERCHE SCIENTIFIQUE, priority 2022, published 2026).
Like-named read-outs stand apart in the source and are kept apart here.

What was measured:
Type in all cases: cell-based, Human
[1] = system: 22rV1 prostate cancer cells (PSMA-positive); experiment: Cell viability assay (MTT), dark and blue light; settings: for Photosensitizing index (PI): 22Rv1, dark vs blue light; for SI (vs MC3T3) 22Rv1 Blue / SI (vs NIH-3T3) 22Rv1 Blue: blue light 458 nm
How it was run: (§1)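 Dark versus photoactivated cytotoxicity is compared by MTT in RPMI-grown cells, with 72 h total compound exposure at 0.1% DMSO. Blue light (458 nm) is given for 10 min after an 8 h incubation; data come from at least three independent triplicate experiments.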

[2] = system: C4-2B prostate cancer cells (PSMA-positive); experiment: Cell viability assay (MTT), dark and blue light; settings: for Photosensitizing index (PI): dark vs blue light; for SI (vs MC3T3) C4-2b Blue / SI (vs NIH-3T3) C4-2b Blue: blue light 458 nm
How it was run: as §1

Hela cervix cancer cells = experiment: Cell viability assay (MTT), dark and blue light; settings: for Photosensitizing index (PI) HeLa: dark vs blue light 458 nm; for SI (vs MC3T3) HeLa Blue: blue light 458 nm
How it was run: (§2)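 Absorbance of MTT formazan at 570 nm gives viability after 72 h exposure to the complexes in 0.1% (v/v) DMSO. Irradiated wells got 10 min of 458 nm light after 8 h of dark incubation.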

[3] = system: MGHU3 bladder cancer cells; experiment: Cell viability assay (MTT), dark and blue light; settings: for SI (vs MC3T3) MGHU3 Blue / SI (vs NIH-3T3) MGHU3 Blue: blue light 458 nm; for Photosensitizing index (PI) MGHU3: dark vs blue light 458 nm
How it was run: as §2

[4] = system: PSMA-positive cells (C4-2b and 22Rv1); experiment: Cell viability assay (MTT), summary over PSMA-positive cancer cells; settings: blue light 458 nm; read-out: GI50 mean over PSMA-positive cancer cells, irradiated
Protocol: (§3) Cells were grown in humidified incubators at 37° C. in 5% CO2. Murine MC3T3 osteoblast and NIH-3T3 fibroblast cells-used as non-tumor cell models-were cultured in a-MEM medium and DMEM medium supplemented with 10% fetal bovine serum (FBS) and 1% Penicillin/Streptomycin (P/S) antibiotics, respectively. Human T24 bladder, MGHU3 bladder, Scaber bladder, A549 lung, MCF7 breast, MiaPaCa2 pancreas cancer cells were cultured in DMEM medium supplemented with 10% FBS and 1% P/S antibiotics. Human ASPC-1 pancreas, PC-3 prostate, DU-145 prostate, C4-2B prostate and 22rV1 prostate cancer cells were cultured in RPMI medium supplemented with 10% FBS and 1% P/S antibiotics. Human Hela cervix and HepG2 liver cancer cells were cultured EMEM medium supplemented with 10% FBS and 1% P/S antibiotics.
(§4) MTT reagent (3-(4,5-dimethylthiazol-2-yl)-2,5-diphenyltetrazolium bromide) was used to determine cell death as originally described by Mosmann. […] The concentration of the complexes was calculated based on the elemental composition of the complexes determined by the elemental analyses. […] After solubilization with 500 μL of DMSO, formazan was quantified spectrophotometrically with a microplate reader at 570 nm absorbance (ClarioSTAR, BMG LabTech). […] All the results were calculated from data obtained in at least three independent experiments performed in triplicate. […]

[5] = system: PSMA-negative cells (PC-3 and DU145); experiment: Cell viability assay (MTT), summary over PSMA-negative cancer cells; settings: blue light 458 nm; read-out: GI50 mean over PSMA-negative cancer cells, irradiated
Protocol: as §3, §4

[6] = 22Rv1, blue light, read-out: GI50
[7] = 8 h in the dark, blue light 458 nm 10 min, then dark up to 72 h, read-out: GI50 22Rv1 Blue
[8] = in the dark, 72 h, read-out: GI50 22Rv1 Dark
[9] = 8 h in the dark, blue light 458 nm 10 min, then dark up to 72 h, read-out: GI50 C4-2b Blue
[10] = C4-2b, blue light, read-out: GI50
[11] = in the dark, 72 h, read-out: GI50 C4-2b Dark
[12] = 8 h in the dark, blue light 458 nm 10 min, then dark up to 72 h, read-out: GI50 HeLa Blue
[13] = in the dark, 72 h, read-out: GI50 HeLa Dark
[14] = 8 h in the dark, blue light 458 nm 10 min, then dark up to 72 h, read-out: GI50 MGHU3 Blue
[15] = in the dark, 72 h, read-out: GI50 MGHU3 Dark

| Structure (SMILES) | GI50 [1, 6] | Photosensitizing index (PI) [1] | GI50 ([1]; 22Rv1, dark, read-out: GI50) | GI50 [1, 7] | SI (vs MC3T3) 22Rv1 Blue [1] | SI (vs NIH-3T3) 22Rv1 Blue [1] | SI (vs NIH-3T3) 22Rv1 Dark [1] | GI50 [1, 8] | GI50 [2, 9] | GI50 [2, 10] | Photosensitizing index (PI) ([2]; C4-2b) | GI50 ([2]; C4-2b, dark, read-out: GI50) | SI (vs MC3T3) C4-2b Blue [2] | SI (vs NIH-3T3) C4-2b Blue [2] | GI50 (Hela cervix cancer cells; [12]) | Photosensitizing index (PI) HeLa (Hela cervix cancer cells) | GI50 (Hela cervix cancer cells; [13]) | GI50 [3, 14] | Photosensitizing index (PI) MGHU3 [3] | GI50 [3, 15] | other results |
| --- | --- | --- | --- | --- | --- | --- | --- | --- | --- | --- | --- | --- | --- | --- | --- | --- | --- | --- | --- | --- | --- |
| F[P-](F)(F)(F)(F)F.O=C(O)CC[C@H](NC(=O)N[C@@H](CCCCNC(=O)CCn1cc[n+]2[c]1[Ir-3]13([c]4c(sc5ccccc45)-c4cccc[n+]41)([c]1c(sc4ccccc14)-c1cccc[n+]13)[n+]1ccccc1-2)C(=O)O)C(=O)O [III-j] | 0.28 µM | 35.4 | 9.9 µM | 0.28 µM | 44.0 | 38.0 | >10.1 | 9.9 µM | 0.52 µM | 0.52 µM | 21.7 | 11.3 µM | 24.0 | 20.7 | – | – | – | – | – | – | SI (vs MC3T3) C4-2b Dark ([2]; dark): >22.1; SI (vs NIH-3T3) C4-2b Dark ([2]; dark): >8.8; GI50 [2, 11]: 11.3 µM |
| F[P-](F)(F)(F)(F)F.O=C(CCCC[C@@H]1SC[C@@H]2NC(=O)N[C@@H]21)NCCCn1cc[n+]2[c]1[Ir-3]13([c]4ccccc4-c4sc5ccccc5[n+]41)([c]1ccccc1-c1sc4ccccc4[n+]13)[n+]1ccccc1-2 [I-k] | – | – | – | – | – | – | – | – | – | – | – | – | – | – | 6.5 µM | 7.8 | 50.6 µM | 2.9 µM | 15.9 | 46.1 µM | SI (vs NIH-3T3) HeLa Dark (Hela cervix cancer cells): 1.5; SI (vs MC3T3) MGHU3 Blue [3]: 6.8; SI (vs NIH-3T3) MGHU3 Blue [3]: 10.7 |
| F[P-](F)(F)(F)(F)F.O=C(O)CC[C@H](NC(=O)N[C@@H](CCCCNC(=O)CCn1cc[n+]2[c]1[Ir-3]13([c]4cccc5ccc6ccc[n+]1c6c45)([c]1cccc4ccc5ccc[n+]3c5c14)[n+]1ccccc1-2)C(=O)O)C(=O)O [III-i] | 1.96 µM | 6.4 | 12.5 µM | 2 µM | 20.7 | – | >8 | 12.5 µM | 2.7 µM | 2.69 µM | 5.5 | 14.8 µM | – | 20.7 | – | – | – | – | – | – | SI (vs MC3T3) 22Rv1 Dark [1]: 20.0; SI (vs NIH-3T3) C4-2b Dark ([2]; dark): >6.7; GI50 [2, 11]: 14.8 µM |
| COC(=O)c1ccc2[n+](c1)[Ir-3]13([c]4ccccc4-2)([c]2ccccc2-c2ccc(C(=O)OC)c[n+]21)[c]1n(CCCNC(=O)CCCC[C@@H]2SC[C@@H]4NC(=O)N[C@@H]42)cc[n+]1-c1cccc[n+]13.F[P-](F)(F)(F)(F)F [I-e] | – | – | – | – | – | – | – | – | – | – | – | – | – | – | 59 µM | 3.7 | 221 µM | 17.8 µM | >5.6 | > 100 µM | SI (vs MC3T3) HeLa Blue (Hela cervix cancer cells): 0.7; SI (vs MC3T3) HeLa Dark (Hela cervix cancer cells): 0.3; SI (vs NIH-3T3) HeLa Dark (Hela cervix cancer cells): >1.1; SI (vs MC3T3) MGHU3 Blue [3]: 2.3; SI (vs NIH-3T3) MGHU3 Blue [3]: 7.8; SI (vs MC3T3) MGHU3 Dark ([3]; dark): <1; SI (vs NIH-3T3) MGHU3 Dark ([3]; dark): >2.5 |
| F[P-](F)(F)(F)(F)F.O=C(CCCC[C@@H]1SC[C@@H]2NC(=O)N[C@@H]21)NCCCn1cc[n+]2[c]1[Ir-3]13([c]4ccccc4-c4ccc5ccccc5[n+]41)([c]1ccccc1-c1ccc4ccccc4[n+]13)[n+]1ccccc1-2 [I-g] | – | – | – | – | – | – | – | – | – | – | – | – | – | – | 10.8 µM | 4.1 | 44.3 µM | 4.3 µM | 5.9 | 25.4 µM | SI (vs MC3T3) HeLa Dark (Hela cervix cancer cells): 1.2; SI (vs NIH-3T3) MGHU3 Blue [3]: 14.3; SI (vs MC3T3) MGHU3 Dark ([3]; dark): 2.2 |
| F[P-](F)(F)(F)(F)F.O=C(O)CC[C@H](NC(=O)N[C@@H](CCCCNC(=O)CCn1cc[n+]2[c]1[Ir-3]13([c]4ccccc4-c4c5ccccc5cc[n+]41)([c]1ccccc1-c1c4ccccc4cc[n+]13)[n+]1ccccc1-2)C(=O)O)C(=O)O [III-h] | 0.14 µM | 29.3 | 4.1 µM | 0.14 µM | – | 131.9 | >25 | 4.1 µM | 0.31 µM | 0.31 µM | 12.9 | 4 µM | 27.0 | 61.9 | – | – | – | – | – | – | SI (vs MC3T3) 22Rv1 Dark [1]: 12.9; SI (vs MC3T3) C4-2b Dark ([2]; dark): 13.0; GI50 [4]: 0.31 µM; GI50 [5]: 1.6 µM |
| F[P-](F)(F)(F)(F)F.O=C(CCCC[C@@H]1SC[C@@H]2NC(=O)N[C@@H]21)NCCCn1cc[n+]2[c]1[Ir-3]13([c]4ccccc4-c4c5ccccc5cc[n+]41)([c]1ccccc1-c1c4ccccc4cc[n+]13)[n+]1ccccc1-2 [I-h] | – | – | – | – | – | – | – | – | – | – | – | – | – | – | 2.86 µM | 14.6 | 41.8 µM | 1.6 µM | 16.7 | 26.7 µM | SI (vs MC3T3) HeLa Blue (Hela cervix cancer cells): 1.7; SI (vs MC3T3) HeLa Dark (Hela cervix cancer cells): 1.0; SI (vs NIH-3T3) HeLa Dark (Hela cervix cancer cells): 2.4; SI (vs MC3T3) MGHU3 Dark ([3]; dark): 1.8 |
| F[P-](F)(F)(F)(F)F.O=C(O)CC[C@H](NC(=O)N[C@@H](CCCCNC(=O)CCn1cc[n+]2[c]1[Ir-3]13([c]4ccccc4-c4sc5ccccc5[n+]41)([c]1ccccc1-c1sc4ccccc4[n+]13)[n+]1ccccc1-2)C(=O)O)C(=O)O [III-k] | 0.39 µM | 13.1 | 5.1 µM | 8.39 µM | 87.1 | 77.3 | – | 5.1 µM | – | 0.41 µM | 12.9 | 5.3 µM | 83.3 | 73.9 | – | – | – | – | – | – | SI (vs MC3T3) 22Rv1 Dark [1]: 18.8; SI (vs MC3T3) C4-2b Dark ([2]; dark): 17.9; GI50 [2, 11]: 5.3 µM; GI50 [4]: 0.31 µM; GI50 [5]: 1.6 µM |
